Data from patent US9573913B2, “Cathepsin cysteine protease inhibitors” (Merck Sharp & Dohme Corp., priority 2013, dated 2017).

What was measured:
human cathepsin K = human cathepsin K (UniProt P43236); test: Cathepsin K Assay (hrbCat K); format: biochemical; conditions: Z-Leu-Arg-AMC substrate, pH 5.5, 15 min preincubation; read-out: hrbCat K (IP (nM))
Method in brief: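 Human cathepsin K (0.4 nM) was preincubated 15 min at room temperature with compound in 50 mM MES pH 5.5, 2.5 mM EDTA, 2.5 mM DTT and 10% DMSO. Inhibition was fitted to a dose-response model.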

human cathepsin F = molecular target: T1, human cathepsin F (Homo sapiens, UniProt Q9UBX1); test: Cathepsin F assay (hCat F); format: biochemical; conditions: Z-Phe-Arg-AMC substrate, pH 5.5, 15 min preincubation; read-out: hCat F (IP (nM))
T1 sequence (Q9UBX1 271-484): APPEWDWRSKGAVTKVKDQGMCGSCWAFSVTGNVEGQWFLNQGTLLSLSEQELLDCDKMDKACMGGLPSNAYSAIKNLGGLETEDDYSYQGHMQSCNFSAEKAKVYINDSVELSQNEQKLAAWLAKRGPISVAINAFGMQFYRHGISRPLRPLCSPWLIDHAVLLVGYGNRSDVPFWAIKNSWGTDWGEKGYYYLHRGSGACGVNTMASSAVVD
Method in brief: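 AMC release from Z-Phe-Arg-AMC, added at 8 μM, was monitored fluorometrically (360/460 nm) for 20 min after 10 nM enzyme and compound had been preincubated 15 min at room temperature. Buffer: MES 50 mM pH 5.5, EDTA and DTT 2.5 mM each, 10% DMSO. Compound DMSO dilutions spanned 500–0.025 μM (3-fold). Dose-response fitting gave % inhibition.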

Structure (SMILES)	IC50 (human cathepsin K)	IC50 (human cathepsin F)
COc1cccc(-c2nc([C@@H]3CCCC[C@H]3C(=O)NC3(C#N)CC3)c(-c3ccc(N4CCS(=O)(=O)CC4)cc3)s2)c1 [Example 56, (1R,2R)-N-(1-cyanocyclopropyl)-2-(5-(4-(1,1-dioxidothiomorpho-lino)phenyl)-2-(3-methoxyphenyl)thi-azol-4-yl)cyclohexane-carboxamide]	1.8 nM	821 nM
N#CC1(NC(=O)[C@@H]2CCCC[C@H]2c2nc(-c3cc(F)cc(F)c3)sc2-c2ccc(N3CCS(=O)(=O)CC3)cc2)CC1 [Example 57, (1R,2R)-N-(1-cyanocyclopropyl)-2-(2-(3,5-difluorophenyl)-5-(4-(1,1-dioxidothiomorpho-lino)phenyl)thiazol-4-yl)cyclohexane-carboxamide]	1.5 nM	650 nM
N#CC1(NC(=O)[C@@H]2CCCC[C@H]2c2nc(-c3ccc(F)c(F)c3)sc2-c2ccc(N3CCS(=O)(=O)CC3)cc2)CC1 [Example 58, (1R,2R)-N-(1-cyanocyclopropyl)-2-(2-(3,4-difluorophenyl)-5-(4-(1,1-dioxidothiomorpho-lino)phenyl)thiazol-4-yl)cyclohexane-carboxamide]	1.7 nM	815 nM
COc1cnc(-c2nc([C@@H]3CCCC[C@H]3C(=O)NC3(C#N)CC3)c(-c3ccc(N4CCS(=O)(=O)CC4)cc3)s2)c(OC)c1 [Example 59, (1R,2R)-N-(1-cyanocyclopropyl)-2-(2-(3,5-dimethoxypyridin-2-yl)-5-(4-(1,1-dioxidothiomorpho-lino)phenyl)thiazol-4-yl)cyclohexane-carboxamide]	45.1 nM	≥ 10000 nM
COc1cnc(-c2nc([C@@H]3CCCC[C@H]3C(=O)NC3(C#N)CC3)c(-c3ccc(N4CCS(=O)(=O)CC4)cc3)s2)c(F)c1 [Example 60, (1R,2R)-N-(1-cyanocyclopropyl)-2-(5-(4-(1,1-dioxidothiomorpho-lino)phenyl)-2-(3-fluoro-5-methoxypyridin-2-yl)thiazol-4-yl)cyclohexane-carboxamide]	5.1 nM	7910 nM
N#Cc1cc(F)ccc1-c1nc([C@@H]2CCCC[C@H]2C(=O)NC2(C#N)CC2)c(-c2ccc(N3CCS(=O)(=O)CC3)cc2)s1 [Example 61, (1R,2R)-2-(2-(2-cyano-4-fluorophenyl)-5-(4-(1,1-dioxidothiomorpho-lino)phenyl)thiazol-4-yl)-N-(1-cyanocyclopropyl) cyclohexanecarbox-amide]	5.9 nM	7650 nM
N#CC1(NC(=O)[C@@H]2CCCC[C@H]2c2nc(-c3cccc(F)c3F)sc2-c2ccc(N3CCS(=O)(=O)CC3)cc2)CC1 [Example 62, (1R,2R)-N-(1-cyanocyclopropyl)-2-(2-(2,3-difluorophenyl)-5-(4-(1,1-dioxidothiomorpho-lino)phenyl)thiazol-4-yl)cyclohexane-carboxamide]	2.1 nM	1000 nM
N#CC1(NC(=O)[C@@H]2CCCC[C@H]2c2nc(-c3cccc(F)c3)sc2-c2ccc(N3CCS(=O)(=O)CC3)cc2)CC1 [Example 64, (1R,2R)-N-(1-cyanocyclopropyl)-2-(5-(4-(1,1-dioxidothiomorpho-lino)phenyl)-2-(3-fluorophenyl)thiazol-4-yl)cyclohexane-carboxamide]	1.4 nM	1330 nM
N#CC1(NC(=O)[C@@H]2CCCC[C@H]2c2nc(-c3ncc(F)cc3F)sc2-c2ccc(N3CCS(=O)(=O)CC3)cc2)CC1 [Example 65, (1R,2R)-N-(1-cyanocyclopropyl)-2-(2-(3,5-difluoropyridin-2-yl)-5-(4-(1,1-dioxidothiomorpho-lino)phenyl)thiazol-4-yl)cyclohexane-carboxamide]	7 nM	1000 nM
N#Cc1cccc(-c2nc([C@@H]3CCCC[C@H]3C(=O)NC3(C#N)CC3)c(-c3ccc(N4CCS(=O)(=O)CC4)cc3)s2)c1 [Example 66, (1R,2R)-N-(1-cyanocyclopropyl)-2-(2-(3-cyanophenyl)-5-(4-(1,1-dioxidothiomorpho-lino)phenyl)thiazol-4-yl)cyclohexane-carboxamide]	2 nM	1410 nM
Cc1ccc(-c2nc([C@@H]3CCCC[C@H]3C(=O)NC3(C#N)CC3)c(-c3ccc(N4CCS(=O)(=O)CC4)cc3)s2)c(C#N)c1 [Example 67, (1R,2R)-2-(2-(2-cyano-4-methylphenyl)-5-(4-(1,1-dioxidothiomorpho-lino)phenyl)thiazol-4-yl)-N-(1-cyanocyclopropyl) cyclohexanecarbox-amide]	5.8 nM	≥ 10000 nM
N#CC1(NC(=O)[C@@H]2C[C@@H](F)CC[C@H]2c2nc(-c3cncc(Cl)c3)sc2-c2ccc(N3CCS(=O)(=O)CC3)cc2)CC1 [Example 68, (1R,2R,5S)-2-(2-(5-chloropyridin-3-yl)-5-(4-(1,1-dioxidothiomorpho-lino)phenyl)thiazol-4-yl)-N-(1-cyanocyclopropyl)-5-fluorocyclohexane-carboxamide]	1.7 nM	2310 nM
N#CC1(NC(=O)[C@@H]2C[C@@H](F)CC[C@H]2c2nc(-c3ccc(F)cn3)sc2-c2ccc(N3CCS(=O)(=O)CC3)cc2)CC1 [Example 69, (1R,2R,5S)-N-(1-cyanocyclopropyl)-2-(5-(4-(1,1-dioxidothiomorpho-lino)phenyl)-2-(5-fluoropyridin-2-yl)thiazol-4-yl)-5-fluorocyclohexane-carboxamide]	1.2 nM	2600 nM
N#CC1(NC(=O)[C@@H]2CCCC[C@H]2c2nc(-c3ncccn3)sc2-c2ccc(N3CCS(=O)(=O)CC3)cc2)CC1 [Example 70, (1R,2R)-N-(1-cyanocyclopropyl)-2-(5-(4-(1,1-dioxidothiomorpho-lino)phenyl)-2-(pyrimidin-2-yl)thiazol-4-yl)cyclohexane-carboxamide]	27.1 nM	≥ 10000 nM
N#CC1(NC(=O)[C@@H]2CCCC[C@H]2c2nc(-c3cnc(N)nc3)sc2-c2ccc(N3CCS(=O)(=O)CC3)cc2)CC1 [Example 71, (1R,2R)-2-(2-(2-aminopyrimidin-5-yl)-5-(4-(1,1-dioxidothiomorpho-lino)phenyl)thiazol-4-yl)-N-(1-cyanocyclopropyl) cyclohexanecarbox-amide]	2.3 nM	2320 nM
N#CC1(NC(=O)[C@@H]2CCCC[C@H]2c2nc(-c3cccnc3)sc2-c2ccc(N3CCS(=O)(=O)C4(CC4)C3)cc2)CC1 [Example 72, (1R,2R)-N-(1-cyanocyclopropyl)-2-(5-(4-(4,4-dioxido-4-thia-7-azaspiro[2.5]octan-7-yl)phenyl)-2-(pyridin-3-yl)thiazol-4-yl)cyclohexane-carboxamide]	2.3 nM	2150 nM
CS(=O)(=O)C1CN(c2ccc(-c3sc(-c4cccnc4)nc3[C@@H]3CCCC[C@H]3C(=O)NC3(C#N)CC3)cc2)C1 [Example 73, (1R,2R)-N-(1-cyanocyclopropyl)-2-(5-(4-(3-(methylsulfonyl)azetidin-1-yl)phenyl)-2-(pyridin-3-yl)thiazol-4-yl)cyclohexane-carboxamide]	2.2 nM	1200 nM
N#CC1(NC(=O)[C@@H]2CCCC[C@H]2c2nc(-c3cncc(F)c3)sc2-c2ccc(N3CCS(=O)(=O)C4(CC4)C3)cc2)CC1 [Example 74, (1R,2R)-N-(1-cyanocyclopropyl)-2-(5-(4-(4,4-dioxido-4-thia-7-azaspiro[2.5]octan-7-yl)phenyl)-2-(5-fluoropyridin-3-yl)thiazol-4-yl)cyclohexane-carboxamide]	1.9 nM	1370 nM
CS(=O)(=O)C1CN(c2ccc(-c3sc(-c4cncc(F)c4)nc3[C@@H]3CCCC[C@H]3C(=O)NC3(C#N)CC3)cc2)C1 [Example 75, (1R,2R)-N-(1-cyanocyclopropyl)-2-(2-(5-fluoropyridin-3-yl)-5-(4-(3-(methylsulfonyl)azetidin-1-yl)phenyl)thiazol-4-yl)cyclohexane-carboxamide]	1.5 nM	867 nM
N#CC1(NC(=O)[C@@H]2CCCC[C@H]2c2nc(-c3cncc(Cl)c3)sc2-c2ccc(N3CCS(=O)(=O)C4(CC4)C3)cc2)CC1 [Example 76, (1R,2R)-2-(2-(5-chloropyridin-3-yl)-5-(4-(4,4-dioxido-4-thia-7-azaspiro[2.5]octan-7-yl)phenyl)thiazol-4-yl)-N-(1-cyanocyclopropyl) cyclohexanecarbox-amide]	1.8 nM	1000 nM
Cc1ncc(-c2nc([C@@H]3CCCC[C@H]3C(=O)NC3(C#N)CC3)c(-c3ccc(N4CCS(=O)(=O)CC4)cc3)s2)cn1 [Example 77, (1R,2R)-N-(1-cyanocyclopropyl)-2-(5-(4-(1,1-dioxidothiomorpho-lino)phenyl)-2-(2-methylpyrimidin-5-yl)thiazol-4-yl)cyclohexane-carboxamide]	1.6 nM	1870 nM
N#CC1(NC(=O)[C@@H]2CCC(F)(F)C[C@H]2c2nc(-c3ccc(F)cc3)sc2-c2ccc(N3CCS(=O)(=O)CC3)cc2)CC1 [Example 78, (1R,2R)-N-(1-cyanocyclopropyl)-2-(5-(4-(1,1-dioxidothiomorpho-lino)phenyl)-2-(4-fluorophenyl)thiazol-4-yl)-4,4-difluorocyclohexane-carboxamide]	3.8 nM	3330 nM
